From patent US20240299349A1, “TREATMENT OR PREVENTION OF LEUKAEMIA” (VESTLANDETS INNOVASJONSSELSKAP AS, priority 2019, published 2024)

Tests used:
MOLM-13 cell line = assay: WST-1 cell viability assay, 24 hours treatment, MOLM-13; assay type: cell-based, human; conditions: MOLM-13, 24 hours; for cell survival dose/response curve in the mitochondria metabolism assay (WST-1): FIG. 1; for cytotoxicity / %-viability: 0.001-100 μM, WST-1
Method: (§1) The cell lines HL60 and MOLM-13 were treated with the various compounds for 24 hours. The cell viability assay WST-1 was used to determine the cytotoxic effect and to generate the dose-response curves and IC50 values.
(§2) The two human cell lines HL60 and MOLM-13 reflect the aggressive blood cancer acute myeloid leukaemia (AML). These cell lines (obtained from the American Type Culture Collection, ATCC) were cultured in RPMI 1640, 2 mM L-Glutamine, 50 UmL^−1 penicillin/streptomycin (Sigma Aldrich) and 10% fetal bovine serum (Biowest) and incubated in humidified atmosphere at a temperature of 37° C. under 5% CO2. The cells (2×10^5 cells×mL^−1) were treated with various concentrations (0.001 μM→100 μM) of the compounds for a period of 24 hours. Metabolic cell activity (i.e. cell viability) was measured using the WST-1 cell proliferation agent (Roche) and read on a […] plate reader (Infinite 200 Pro, Tecan). Selected cell samples were analysed after nuclear staining with Hoechst to determine apoptotic nuclear fragmentation.

HL60 cell line = assay: WST-1 cell viability assay, 24 hours treatment, HL60; assay type: cell-based, human; conditions: HL60, 24 hours; for cell survival dose/response curve in the mitochondria metabolism assay (WST-1): FIG. 1; for cytotoxicity / %-viability: 0.001-100 μM, WST-1
Method: as §1, §2

Row | Compound | cell survival dose/response curve in the mitochondria metabolism assay (WST-1) (MOLM-13 cell line) | cell survival dose/response curve in the mitochondria metabolism assay (WST-1) (HL60 cell line) | cytotoxicity / %-viability (MOLM-13 cell line) | cytotoxicity / %-viability (HL60 cell line) | melting point
1 | COc1cccc(-c2c(O)c(OC)c(C)c(OC)c2[N+](=O)[O-])c1 [Compound 7a, 3,3′,5-trimethoxy-4-methyl-6-nitro-[1,1′-biphenyl]-2-ol] | rapid decrease in cell survival | rapid decrease in cell survival |  |  | 
2 | COC1=C(C)C(C)(O)c2[nH]c3ccccc3c2C1=O (stereo not drawn) [Compound 13, 1-hydroxy-3-methoxy-1,2-dimethyl-1,9-dihydro-4H-carbazol-4-one, reference compound] | more limited dose/response curves | more limited dose/response curves | not to exhibit cytotoxicity | not to exhibit cytotoxicity | 
3 | COC1=C(C)C(=O)c2[nH]c3ccccc3c2C1=O [Compound 12, 3-methoxy-2-methyl-1-carbazole-1,4 (9H)-dione] | more limited dose/response curves | more limited dose/response curves |  |  | 
4 | COc1c(C)c(OC)c(O)c(-c2ccccc2)c1N [Compound 8, 6-amino-3,5-dimethoxy-4-methyl-[1,1′-biphenyl]-2-ol] | rapid decrease in cell survival | rapid decrease in cell survival | substantial drop in %-viability | substantial drop in %-viability | 
5 | COc1cccc(-c2c(N)c(OC)c(C)c(OC)c2O)c1 [Compound 8a, 6-amino-3,3′,5-trimethoxy-4-methyl-[1,1′-biphenyl]-2-ol] | rapid decrease in cell survival | rapid decrease in cell survival |  |  | 
6 | COc1cccc(-c2c(NC(C)=O)c(OC)c(C)c(OC)c2OC(C)=O)c1 [Compound 9a, 6-acetamido-3,3′,5-trimethoxy-4-methyl-(1,1′-biphenyl)-2-yl acetate] | more limited dose/response curves | more limited dose/response curves |  |  | 
7 | COc1c(C)c(OC)c([N+](=O)[O-])c(-c2ccccc2)c1O [Compound 7, 3,5-dimethoxy-4-methyl-6-nitrobiphenyl-2-ol] | more limited dose/response curves | more limited dose/response curves | minor decrease in %-viability | minor decrease in %-viability | 102.7 °C
8 | COc1c(C)c(OC)c(OC(C)=O)c(-c2ccccc2)c1NC(C)=O [Compound 9, 6-acetamido-3,5-dimethoxy-4-methyl-(1,1′-biphenyl)-2-yl acetate] | more limited dose/response curves | more limited dose/response curves | weaker cytotoxicity | weaker cytotoxicity | 
9 | COc1c(C)c(OC)c2c(c1OC(C)=O)c1ccccc1n2C(C)=O [Compound 10, 9-acetyl-1,3-dimethoxy-2-methyl-9H-carbazol-4-yl acetate] | rapid decrease in cell survival | rapid decrease in cell survival | did not show any influence on the cytotoxicity | did not show any influence on the cytotoxicity | 
10 | COc1c(C)c(OC)c2[nH]c3ccccc3c2c1O [Compound 11, 1,3-dimethoxy-2-methyl-9H-carbazol-4-ol] | rapid decrease in cell survival | rapid decrease in cell survival | major cytotoxicity | major cytotoxicity | 
